Experimental data reported in patent publication US20190167675A1, “METHODS AND COMPOSITIONS FOR APPETITE CONTROL AND WEIGHT MANAGEMENT” (SHANGHAI YAO YUAN BIOTECHNOLOGY CO., LTD., priority 2016, published 2019).
“Also recorded” adds a separate entry of the source.

What was measured:
ASIC = settings: cited from earlier work
ASICs [1] = settings: Rat DRG neurons, in vitro; cited from earlier work
ASICs [2] = settings: cited from earlier work
DEG/ENaC ion channels = test: Short-term food intake in normal mice; assay type: in vivo, C57BL6 mice; settings: 15 minutes before feeding
Procedure: 13 weeks old C57BL6 Female and male mice were singly housed for 2 weeks before the experiment. Mice were starved Sam-6 μm. […] The administrated volume was 10 ml/kg body weight. 15 minutes later, normal chow solid food was provided to the mice and the food consumption at designated time points were measured. P-values were calculated using t-test (unpaired, 2 tails) for data points. *=p<0.05, **=p<0.01, ***=p<0.001
15 weeks old C57BL6 female mice were singly housed for 2 weeks before the experiment. Mice were starved Sam-6 μm. Then Benzamil (Benzamil hydrochloride hydrate) was administrated by intraperitoneal injection, 0.01-10 μmole/kg body weight (3.5621 μg 3.5621 mg/kg b.w.), or saline. The administrated volume was 10 ml/kg body weight. 15 minutes later, normal chow solid food was provided to the mice and the food consumption at designated time points were measured.

[3] = Weight change in LepR^PB obese mice; assay type: in vivo, LepR^PB female mice; settings: oral gavage 6 times a week for 5 weeks, 4.1 mg/kg/day Day 1-14, 12.3 mg/kg/day Day 15-35; by day 35
Procedure: 8 weeks old LepR^PB female mice were used in the experiment. LepR^PB mouse is a model of obesity, which carries a mutation in the gene for the leptin receptor. 20 mice were randomly divided into two groups. […] Amiloride was dissolved in DMSO and diluted in sterile water. […] The injection volume was 10 ml/kg. The mice in control group received 82 μl DMSO/kg/day in sterile water. Body weight was measured. The weight changes compared to the body weight on Day 14 were analyzed.

[4] = Body composition by NMR in LepR^PB obese mice; assay type: in vivo, LepR^PB female mice; settings: before and after 5-week administration
ASICs [5] = settings: in vitro; cited from earlier work
ENaC = biological target: T1, ENaC (Homo sapiens, UniProt P37088+P51168+P51170); settings: in vitro and in vivo; cited from earlier work
T1 sequence (P37088 1-669): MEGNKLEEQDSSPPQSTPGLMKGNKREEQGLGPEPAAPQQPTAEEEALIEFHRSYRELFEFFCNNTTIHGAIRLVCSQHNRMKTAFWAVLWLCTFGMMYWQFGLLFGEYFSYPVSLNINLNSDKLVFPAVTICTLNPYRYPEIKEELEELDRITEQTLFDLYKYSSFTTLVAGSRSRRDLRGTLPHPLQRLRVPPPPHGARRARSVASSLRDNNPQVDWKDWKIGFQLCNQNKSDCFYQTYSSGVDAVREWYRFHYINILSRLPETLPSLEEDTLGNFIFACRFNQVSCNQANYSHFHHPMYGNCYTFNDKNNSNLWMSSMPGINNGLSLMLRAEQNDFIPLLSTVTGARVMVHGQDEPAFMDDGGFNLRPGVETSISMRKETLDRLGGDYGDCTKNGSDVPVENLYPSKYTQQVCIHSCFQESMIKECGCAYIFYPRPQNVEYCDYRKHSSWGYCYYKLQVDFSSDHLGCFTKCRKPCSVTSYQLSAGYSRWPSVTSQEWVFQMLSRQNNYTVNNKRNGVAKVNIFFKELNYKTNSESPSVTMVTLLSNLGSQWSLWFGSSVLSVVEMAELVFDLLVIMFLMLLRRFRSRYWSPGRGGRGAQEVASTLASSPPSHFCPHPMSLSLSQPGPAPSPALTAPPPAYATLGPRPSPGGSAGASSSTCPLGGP
T1 sequence (P51168 1-640): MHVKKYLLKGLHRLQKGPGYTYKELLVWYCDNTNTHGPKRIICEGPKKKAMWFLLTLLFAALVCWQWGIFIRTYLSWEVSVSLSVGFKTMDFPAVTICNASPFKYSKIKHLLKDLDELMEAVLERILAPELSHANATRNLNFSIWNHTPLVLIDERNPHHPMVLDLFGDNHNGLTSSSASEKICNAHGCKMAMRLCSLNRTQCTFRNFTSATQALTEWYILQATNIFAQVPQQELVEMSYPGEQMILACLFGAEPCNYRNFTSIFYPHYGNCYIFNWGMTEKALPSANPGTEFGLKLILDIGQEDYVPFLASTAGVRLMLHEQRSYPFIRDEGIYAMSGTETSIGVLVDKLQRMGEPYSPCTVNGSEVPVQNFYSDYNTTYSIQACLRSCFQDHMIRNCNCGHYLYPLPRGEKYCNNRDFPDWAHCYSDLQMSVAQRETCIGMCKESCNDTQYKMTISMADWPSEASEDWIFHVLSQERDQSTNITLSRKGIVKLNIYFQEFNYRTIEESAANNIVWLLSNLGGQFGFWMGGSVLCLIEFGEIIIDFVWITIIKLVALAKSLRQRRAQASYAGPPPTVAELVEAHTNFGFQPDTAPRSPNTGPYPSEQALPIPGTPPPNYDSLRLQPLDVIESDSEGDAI
T1 sequence (P51170 1-649): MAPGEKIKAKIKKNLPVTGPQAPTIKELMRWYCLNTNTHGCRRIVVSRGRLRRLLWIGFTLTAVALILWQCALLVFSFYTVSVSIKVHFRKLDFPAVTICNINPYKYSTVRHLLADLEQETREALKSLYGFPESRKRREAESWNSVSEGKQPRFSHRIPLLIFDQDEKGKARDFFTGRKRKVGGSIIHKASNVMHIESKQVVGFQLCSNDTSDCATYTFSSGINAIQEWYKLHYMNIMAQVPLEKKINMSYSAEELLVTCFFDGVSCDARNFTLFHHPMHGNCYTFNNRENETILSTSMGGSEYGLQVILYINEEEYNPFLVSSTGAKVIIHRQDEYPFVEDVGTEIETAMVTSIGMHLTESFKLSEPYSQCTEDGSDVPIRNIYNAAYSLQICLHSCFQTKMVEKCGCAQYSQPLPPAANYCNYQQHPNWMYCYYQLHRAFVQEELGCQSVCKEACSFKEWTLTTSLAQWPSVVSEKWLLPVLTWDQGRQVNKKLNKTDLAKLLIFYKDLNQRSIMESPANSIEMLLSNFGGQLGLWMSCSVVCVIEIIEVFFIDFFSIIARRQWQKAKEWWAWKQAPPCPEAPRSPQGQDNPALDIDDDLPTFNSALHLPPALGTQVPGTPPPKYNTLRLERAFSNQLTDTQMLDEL

[6] = guinea pig TPD model; cited from earlier work
[7] = mice; i.t., i.c.v., intraplantar or intravenous; cited from earlier work
homomeric ASIC1a = biological target: T2, homomeric ASIC1a (Homo sapiens, UniProt P78348); settings: cited from earlier work
T2 sequence (P78348 1-528): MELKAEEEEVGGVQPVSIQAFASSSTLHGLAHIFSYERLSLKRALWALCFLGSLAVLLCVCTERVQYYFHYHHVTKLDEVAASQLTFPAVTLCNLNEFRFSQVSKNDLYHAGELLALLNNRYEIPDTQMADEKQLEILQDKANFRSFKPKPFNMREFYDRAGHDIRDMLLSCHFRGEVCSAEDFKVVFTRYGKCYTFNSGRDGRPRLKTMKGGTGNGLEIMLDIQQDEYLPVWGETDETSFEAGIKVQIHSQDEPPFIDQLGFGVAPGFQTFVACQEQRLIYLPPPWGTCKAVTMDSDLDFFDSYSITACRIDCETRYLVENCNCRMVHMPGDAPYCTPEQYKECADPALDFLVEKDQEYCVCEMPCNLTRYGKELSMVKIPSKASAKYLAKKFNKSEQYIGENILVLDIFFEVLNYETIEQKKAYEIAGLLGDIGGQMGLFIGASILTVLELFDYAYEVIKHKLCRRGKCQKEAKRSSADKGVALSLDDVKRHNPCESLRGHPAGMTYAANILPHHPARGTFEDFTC

heteromeric ASIC1a/2b = biological target: T3, heteromeric ASIC1a/2b (Homo sapiens, UniProt P78348+Q16515); settings: cited from earlier work
T3 sequence (P78348 1-528): T2 sequence (P78348 1-528)
T3 sequence (Q16515 1-563 isoform Q16515-2): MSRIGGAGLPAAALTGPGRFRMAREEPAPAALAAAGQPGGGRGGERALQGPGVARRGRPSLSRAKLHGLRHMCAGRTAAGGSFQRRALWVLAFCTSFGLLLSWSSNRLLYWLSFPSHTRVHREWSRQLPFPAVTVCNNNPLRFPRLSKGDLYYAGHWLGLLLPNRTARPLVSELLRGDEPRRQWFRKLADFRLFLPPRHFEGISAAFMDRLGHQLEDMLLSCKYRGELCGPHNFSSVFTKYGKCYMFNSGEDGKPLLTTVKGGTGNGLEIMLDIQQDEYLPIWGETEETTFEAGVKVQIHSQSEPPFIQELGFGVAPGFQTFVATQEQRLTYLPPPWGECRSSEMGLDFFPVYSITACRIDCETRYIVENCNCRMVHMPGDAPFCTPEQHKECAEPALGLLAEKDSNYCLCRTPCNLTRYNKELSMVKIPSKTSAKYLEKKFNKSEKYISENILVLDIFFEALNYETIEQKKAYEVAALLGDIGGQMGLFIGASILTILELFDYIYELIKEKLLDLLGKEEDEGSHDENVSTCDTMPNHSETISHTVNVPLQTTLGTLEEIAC

CC(C)C1c2cc(/C=C/c3ccc4cc(C(=N)N)ccc4c3)ccc2CCN1C (stereo not drawn) [10a]
potency relative to A-317567 (ASIC): about 3 fold

CC(C)C1c2cc(C#Cc3ccc4cc(C(=N)N)ccc4c3)ccc2CCN1C (stereo not drawn) [10b]
potency relative to A-317567 (ASIC): about 3 fold

CC(C)C1c2cc(C3CC3c3ccc4cc(C(=N)N)ccc4c3)ccc2CCN1C (stereo not drawn) [A-317567]
potency relative to Amiloride on ASICs currents (ASICs [1]): 1.8-15 fold

NC(N)=NC(=O)c1nc(Cl)c(N)nc1N [Amiloride, 3,5-diamino-6-chloro-N-(diaminomethylidene)pyrazine-2-carboxamide]
IC50 (ASICs [2]): 10 to 100 µM
short-term food intake (DEG/ENaC ion channels; intraperitoneal, 1, 10 or 100 μmole/kg, male C57BL6 mice): suppressed short-term food intake
short-term food intake (DEG/ENaC ion channels; oral gavage, 1, 10 or 100 μmole/kg, female C57BL6 mice): suppressed short-term food intake
body weight change compared to Day 14, vs DMSO [3]: significant reductions in body weight; also recorded: clear reduction in weight
reduction in body fat percentage vs DMSO [4]: significantly more reduction
reduction in body fluid percentage vs DMSO [4]: not significantly different; also recorded: no significant difference

N=C(N)c1ccc(-c2cc3ccc(C(=N)N)cc3[nH]2)cc1 [DAPI, 4′,6-diamidino-2-phenylindole]
ASICs blockage activity (ASICs [5]): potent ASICs blockage activity

N=C(NC(=O)c1nc(Cl)c(N)nc1N)NC1CCN(C(=O)c2ccc(C(=O)N3CCC(NC(=N)NC(=O)c4nc(Cl)c(N)nc4N)CC3)cc2)CC1 [NVP-QBE170]
blockage of ENaC (ENaC): potent and selective blockage of ENaC
safety window over existing ENaC blockers, in terms of hyperkalaemia [6]: significantly enhanced safety window

N=C(N)c1ccc(/N=N/Nc2ccc(C(=N)N)cc2)cc1 [diminazene]
ASICs blockage activity (ASICs [5]): potent ASICs blockage activity

N=C(N)c1ccc(OCCCCCOc2ccc(C(=N)N)cc2)cc1 [pentamidine]
ASICs blockage activity (ASICs [5]): potent ASICs blockage activity

APETx2
excitotoxicity, spasms, convulsions, motor paralysis, ataxia upon in vivo injections [7]: never produce excitotoxicity, spasms, convulsions, motor paralysis, nor ataxia

PcTx1
inhibition of homomeric ASIC1a (homomeric ASIC1a): nanomolar potency
excitotoxicity, spasms, convulsions, motor paralysis, ataxia upon in vivo injections [7]: never produce excitotoxicity, spasms, convulsions, motor paralysis, nor ataxia
inhibition of heteromeric ASIC1a/2b (heteromeric ASIC1a/2b): nanomolar potency
